This note sets out measurements from patent publication US9751850B2, “TRPA1 antagonists” (AbbVie Inc., priority 2008, dated 2017).

A value given as a limit tells only on which side of the number the result lay.

The experiment deals with Human TRPA1 (Homo sapiens (Human), UniProt O75762). Put plainly: FLIPR based intracellular Ca2+ assay and membrane potential assay, AITC-activated TRPA1. It counts as cell-based. As to conditions: hTRPA1 transiently expressed in HEK293-F cells, AITC as agonist. As for the experimental part:
Molecular biology and transient expression were performed as described in Chen, J. et al., Journal of Biomolecular Screening 2007, 12, 61-69. Briefly, TRPA1 full length cDNA was amplified from human dorsal root ganglia total RNA (BD Bioscience Clontech, Palo Alto, Calif., USA) and was cloned into pcDNA3.1/V5-His Topo vector (Invitrogen, Carlsbad, Calif.). Large scale transient transfection was performed using the FreeStyle™ 293 Expression System as recommended by the manufacturer (Invitrogen). HEK293-F cells were grown in suspension in flasks (cell volume 30 ml, to 1 liter) or in a Wave Bioreactor (Wave Biotech, Somerset, N.J. (6 liters). To support high density, suspension culture and transfection, cells were cultured in Free Style 293 media, an optimized, serum free formulation. 293fectin™ (Invitrogen) was used as transfection reagent. In a transfection of 3×10^7 cells (30 mL volume), 30 μg of plasmid DNA and 40 μL 293 fectin were used. For a larger volume transfection, each reagent was scaled up proportionally. Two days post-transfection, cells were harvested by centrifugation (1000×g, 5 minutes) and resuspended to a density of 1.5×10^7 cells/mL in freezing medium (Freestyle media/10% serum/10% DMSO). Cells were transferred into cryovials in 2 mL aliquots, and these vials were placed in Nalgene Mr. Frosty slow-freeze devices (Sigma-Aldrich, St. Louis, Mo.) at −80° C. As needed, vials were removed from −80° C. and quickly thawed in a 37° C. water bath. Cells were aseptically transferred into conical tubes containing Freestyle media (10 mL/vial). After centrifugation at 1,000×g for 3-5 minutes, medium was removed by aspiration and cells were resuspended in Freestyle medium at desired densities (typically 1×10^6 cells/mL). Re-suspended cells were seeded into black-walled clear-bottom 96-well Biocoat™ poly-D-lysine assay plated (BD Biosciences, Bedford, Mass.) (10^5 cells/well) and incubated overnight at 37° C. under a humidified 5% CO2 atmosphere.
Ca^2+ influx was measured using a FLIPR calcium assay kit (R8033; Molecular Devices, Sunnyvale, Calif.). The Ca^2+ indicator dye was dissolved in Hanks' balanced salt solution supplemented with 20 mM HEPES buffer (HBSS/HEPES) according to the manufacturer instructions. Prior to start of the assay, the medium was removed by aspiration, and cells were loaded with 100 μL Ca^2+ dye for 2 to 3 hours at room temperature. AITC (allyl isothiocyanate) was used to activate and open the channels. (4×) solutions of the test compounds were prepared in HBSS/HEPES, and 50 μL were added to the cells at a delivery rate of 10 μL/sec. Changes in fluorescene were measured over time in a fluorometric imaging plate reader (FLIPR), Molecular Devices). Two additions were made over the course of an experimental run. For agonist experiments, assay buffer was added at the 10 s time point, followed by addition of agonist at the 3 minute 10 sec time point. For antagonist experiments, the antagonist was added at the 10 sec time point, followed by addition of the agonist 3 minutes later. Final assay volume for both the agonist and antagonist experiments was 200 μL. Total length of an experimental run was 6.5 minutes.
Data was analyzed with GraphPad Prism® software (GraphPad Software, San Diego, Calif.), using a four-parameter logistic Hill equation to curve-fit concentration-effect data and derive EC50 or IC50 values. Numerical values are reported as mean±SEM (n=number of experiments). SEM is calculated by dividing the standard deviation by the square root of the sample size […].
Changes in membrane potential were measured in hTRPA1-expressing LSTT cells using a FLIJPR membrane potential assay kit (R8034, Molecular Devices). The procedure for thawing and plating the LSTT cells was identical to the Ca^2+ influx assay (see above). […]

What is called IC50 is the midpoint of a concentration-inhibition curve. Higher therefore signals a need for much substance.

Sequence of Human TRPA1 (O75762 whole entry): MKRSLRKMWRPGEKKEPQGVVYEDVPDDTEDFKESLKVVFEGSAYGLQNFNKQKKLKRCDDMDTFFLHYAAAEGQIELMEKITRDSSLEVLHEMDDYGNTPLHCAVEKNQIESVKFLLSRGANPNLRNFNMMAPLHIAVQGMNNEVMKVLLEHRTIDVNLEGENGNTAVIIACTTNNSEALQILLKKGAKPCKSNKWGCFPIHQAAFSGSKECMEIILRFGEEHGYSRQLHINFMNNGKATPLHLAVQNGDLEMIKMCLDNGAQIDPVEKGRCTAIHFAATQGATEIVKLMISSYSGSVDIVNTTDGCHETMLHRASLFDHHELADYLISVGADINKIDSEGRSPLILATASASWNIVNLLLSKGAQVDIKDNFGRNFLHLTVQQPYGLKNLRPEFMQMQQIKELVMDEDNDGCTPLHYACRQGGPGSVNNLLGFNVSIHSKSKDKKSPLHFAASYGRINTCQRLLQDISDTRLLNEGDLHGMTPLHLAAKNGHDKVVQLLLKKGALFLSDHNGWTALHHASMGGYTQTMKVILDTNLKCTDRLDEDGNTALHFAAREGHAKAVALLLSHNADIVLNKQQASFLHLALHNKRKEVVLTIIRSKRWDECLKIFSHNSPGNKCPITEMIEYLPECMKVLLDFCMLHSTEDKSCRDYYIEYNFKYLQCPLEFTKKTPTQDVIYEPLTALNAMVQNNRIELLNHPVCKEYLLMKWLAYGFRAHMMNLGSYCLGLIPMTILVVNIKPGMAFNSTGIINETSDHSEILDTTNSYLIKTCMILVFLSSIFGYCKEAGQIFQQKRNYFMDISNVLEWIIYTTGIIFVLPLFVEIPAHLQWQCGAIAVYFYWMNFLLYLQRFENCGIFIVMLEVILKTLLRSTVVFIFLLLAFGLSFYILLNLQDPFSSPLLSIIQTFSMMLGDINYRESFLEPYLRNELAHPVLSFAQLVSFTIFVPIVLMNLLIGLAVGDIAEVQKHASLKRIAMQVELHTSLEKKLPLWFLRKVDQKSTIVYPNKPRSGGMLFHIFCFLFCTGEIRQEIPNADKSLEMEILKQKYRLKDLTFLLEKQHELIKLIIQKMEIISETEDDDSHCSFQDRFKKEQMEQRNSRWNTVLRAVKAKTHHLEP

Consider `CCC(=N\O)/C(C)=C/c1cnccc1C` [Example 9, (1E,3E)-2-methyl-1-(4-methylpyridin-3-yl)pent-1-en-3-one oxime], for which the IC50 was above 100 µM.

`CCC(=N\O)/C(C)=C/c1cncc2ccccc12` [Example 11, (1E,3E)-1-(isoquinolin-4-yl)-2-methylpent-1-en-3-one oxime] showed an IC50 above 100 µM.

Consider `CCC(=N\O)/C(C)=C/c1cnc2ccccc2c1` [Example 8, (1E,3E)-2-methyl-1-quinolin-3-ylpent-1-en-3-one oxime], for which the IC50 was above 100 µM.

Consider `CCC(=N\O)/C(C)=C/c1ccc(C)nc1` [Example 7, (1E,3E)-2-methyl-1-(6-methylpyridin-3-yl)pent-1-en-3-one oxime], for which the IC50 is above 100 µM.

For the compound `CCC(=N\O)/C(C)=C/c1ccc(OC)nc1` [Example 3, (1E,3E)-1-(6-methoxypyridin-3-yl)-2-methylpent-1-en-3-one oxime], the IC50 turned out to be 23.4 µM.

`CCC(=N\O)/C(C)=C/c1ccc(C(F)(F)F)nc1` [Example 10, (1E,3E)-2-methyl-1-[6-(trifluoromethyl)pyridin-3-yl]pent-1-en-3-one oxime] yielded an IC50 above 100 µM.

In the case of `CCC(=N\O)/C(C)=C/c1ccsc1` [Example 4, (1E,3E)-2-methyl-1-thien-3-ylpent-1-en-3-one oxime], the IC50 came to 1.32 µM.

`CCC(=N\O)/C(C)=C/c1cccs1` [Example 2, (1E,3E)-2-methyl-1-thien-2-ylpent-1-en-3-one oxime] returned an IC50 of 11 µM.

As to `CCC(=N\O)/C(C)=C/c1ccc(F)nc1` [Example 1, (1E,3E)-1-(6-fluoropyridin-3-yl)-2-methylpent-1-en-3-one oxime], the IC50 worked out at 1.25 µM.

Consider `CCC(=N\O)/C(C)=C/c1cccnc1` [Example 5, (1E,3E)-2-methyl-1-pyridin-3-ylpent-1-en-3-one oxime], for which the IC50 amounted to 17 µM.

Consider `CCC(=N\O)/C(C)=C/c1ccncc1` [Example 6, (1E,3E)-2-methyl-1-pyridin-4-ylpent-1-en-3-one oxime], for which the IC50 was determined as 8.61 µM.
